Laboratory results published in the supplement of paper PMC8612539.
≈ marks a conversion by molar mass, not a printed value.

Test system: Mannheimia haemolytica
Assay: minimum inhibitory concentration (MIC)
Procedure: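 Broth microdilution MIC (Sensititre BOPO7F bovine plate, CLSI methods) of 19 antimicrobials against field isolates of P. multocida, M. haemolytica, H. somni (deep nasopharyngeal swabs) and E. coli, Enterococcus spp. (rectal swabs) from weaned dairy heifers. Incubation 16-24 h at 35 C. MIC is the lowest concentration preventing visible growth. Values with <= or > lie at the tested range limits. Trimethoprim-sulfamethoxazole is given as the trimethoprim component of a 1:19 mixture.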

CCN1CCN(c2cc3c(cc2F)c(=O)c(C(=O)O)cn3C2CC2)CC1 [Enrofloxacin]
Conditions	minimum inhibitory concentration [µg/mL]
isolate (source animal id): 56	0.5 (≈ 1.39 µM)
isolate (source animal id): 57	> 2
isolate (source animal id): 100	2 (≈ 5.56 µM)
isolate (source animal id): 103	0.5 (≈ 1.39 µM)
isolate (source animal id): 107	0.5 (≈ 1.39 µM)
isolate (source animal id): 108	0.5 (≈ 1.39 µM)
isolate (source animal id): 112	0.5 (≈ 1.39 µM)
isolate (source animal id): 113	> 2
isolate (source animal id): 121	0.5 (≈ 1.39 µM)
isolate (source animal id): 122	0.5 (≈ 1.39 µM)
isolate (source animal id): 123	> 2
isolate (source animal id): 126	2 (≈ 5.56 µM)
isolate (source animal id): 133	> 2
isolate (source animal id): 135	> 2
isolate (source animal id): 138	2 (≈ 5.56 µM)
isolate (source animal id): 141	> 2
isolate (source animal id): 142	1 (≈ 2.78 µM)
isolate (source animal id): 145	1 (≈ 2.78 µM)
isolate (source animal id): 149	≤ 0.12
isolate (source animal id): 151	≤ 0.12
isolate (source animal id): 152	1 (≈ 2.78 µM)
isolate (source animal id): 154	≤ 0.12
isolate (source animal id): 159	1 (≈ 2.78 µM)
isolate (source animal id): 162	1 (≈ 2.78 µM)
isolate (source animal id): 170	≤ 0.12
isolate (source animal id): 171	≤ 0.12
isolate (source animal id): 172	≤ 0.12
isolate (source animal id): 173	≤ 0.12
isolate (source animal id): 179	≤ 0.12
isolate (source animal id): 180	≤ 0.12
isolate (source animal id): 183	≤ 0.12
isolate (source animal id): 186	≤ 0.12
isolate (source animal id): 187	≤ 0.12
isolate (source animal id): 188	≤ 0.12
isolate (source animal id): 190	≤ 0.12
isolate (source animal id): 191	≤ 0.12
isolate (source animal id): 192	≤ 0.12
isolate (source animal id): 201	≤ 0.12
isolate (source animal id): 202	≤ 0.12
isolate (source animal id): 209	≤ 0.12
isolate (source animal id): 211	≤ 0.12
isolate (source animal id): 220	≤ 0.12
isolate (source animal id): 221	≤ 0.12
isolate (source animal id): 223	≤ 0.12
isolate (source animal id): 233	1 (≈ 2.78 µM)
isolate (source animal id): 237	1 (≈ 2.78 µM)
isolate (source animal id): 241	1 (≈ 2.78 µM)
isolate (source animal id): 252	0.5 (≈ 1.39 µM)
isolate (source animal id): 253	0.5 (≈ 1.39 µM)
isolate (source animal id): 259	> 2
isolate (source animal id): 260	0.5 (≈ 1.39 µM)
isolate (source animal id): 262	1 (≈ 2.78 µM)
isolate (source animal id): 282	> 2
isolate (source animal id): 287	0.5 (≈ 1.39 µM)
isolate (source animal id): 288	≤ 0.12
isolate (source animal id): 291	≤ 0.12
isolate (source animal id): 293	0.5 (≈ 1.39 µM)
isolate (source animal id): 298	0.5 (≈ 1.39 µM)
isolate (source animal id): 299	0.5 (≈ 1.39 µM)
isolate (source animal id): 300	≤ 0.12
isolate (source animal id): 302	0.5 (≈ 1.39 µM)
isolate (source animal id): 304	0.5 (≈ 1.39 µM)
isolate (source animal id): 306	≤ 0.12
isolate (source animal id): 308	≤ 0.12
isolate (source animal id): 309	≤ 0.12
isolate (source animal id): 313	0.5 (≈ 1.39 µM)
isolate (source animal id): 318	0.25 (≈ 0.696 µM)
isolate (source animal id): 320	≤ 0.12
isolate (source animal id): 321	0.5 (≈ 1.39 µM)
isolate (source animal id): 323	0.5 (≈ 1.39 µM)
isolate (source animal id): 324	0.5 (≈ 1.39 µM)
isolate (source animal id): 326	0.5 (≈ 1.39 µM)
isolate (source animal id): 328	0.5 (≈ 1.39 µM)
isolate (source animal id): 329	0.5 (≈ 1.39 µM)
isolate (source animal id): 333	0.5 (≈ 1.39 µM)
isolate (source animal id): 335	0.5 (≈ 1.39 µM)
isolate (source animal id): 338	0.5 (≈ 1.39 µM)
